Source: patent US4439426A, “Semisynthetic macrolidic antibiotics, intermediate compounds for their preparation and related pharmaceutical compositions containing them” (priority 1981, dated 1984)
Converted amounts (≈) assume the structure as drawn.

Key:
Assay type in all cases: cell-based
[1] = tested on: Streptococcus pyogenes ATCC 8668 LRP 34; experiment: Bacteriostatic power in liquid medium (MIC); details: Streptococcus pyogenes, ATCC8668; liquid medium; read-out: Minimum inhibiting concentration
Source text: (§1) the bacteriostatic power, expressed as the minimum inhibiting concentration (MIC) against both aerobic and anaerobic, Gram positive and Gram negative, bacterial stocks: the related results are reported in the tables 2 and 3.

[2] = tested on: Corynebacterium diphteriae LRP 24; experiment: Bacteriostatic power in liquid medium (MIC); details: Corynebacterium, LRP24; liquid medium; read-out: Minimum inhibiting concentration
Source text: as §1

[3] = tested on: Staphylococcus aureus ATCC 6538 P LRP 39; experiment: Bacteriostatic power in liquid medium (MIC); details: Staphylococcus aureus, ATCC6538; liquid medium; read-out: Minimum inhibiting concentration
Source text: as §1

[4] = tested on: Streptococcus faecalis subs. zymogenes ATCC 12958 LRP 61; experiment: Bacteriostatic power in liquid medium (MIC); details: Enterococcus faecalis, ATCC12958; liquid medium; read-out: Minimum inhibiting concentration
Source text: as §1

[5] = tested on: Streptococcus pneumoniae ATCC 6303 LRP 35; experiment: Bacteriostatic power in liquid medium (MIC); details: Streptococcus pneumoniae, ATCC6303; liquid medium; read-out: Minimum inhibiting concentration
Source text: as §1

Salmonella typhy LRP 8 = experiment: microbe, parasite or virus in culture; details: LRP8, solid medium, read-out: Minimum inhibiting concentration
Source text: as §1

[6] = tested on: Clostridium perfrigens ATCC 3624 LRP 206; experiment: microbe, parasite or virus in culture; details: ATCC3624, solid medium, anaerobic, read-out: Minimum inhibiting concentration
Source text: as §1

Shigella sonnei LRP 5 = experiment: Bacteriostatic power in solid medium (MIC); details: LRP5, read-out: Minimum inhibiting concentration
Source text: as §1

[7] = tested on: Bacteroides fragilis ATCC 23745 LRP 205; experiment: Bacteriostatic power in solid medium (MIC); details: Bacteroides fragilis, ATCC23745; solid medium; anaerobic; read-out: Minimum inhibiting concentration
Source text: as §1

[8] = tested on: Proteus vulgaris ATCC 6380 LRP 13; experiment: Bacteriostatic power in solid medium (MIC); details: Proteus vulgaris, ATCC6380; solid medium; read-out: Minimum inhibiting concentration
Source text: as §1

[9] = tested on: Streptococcus pyogenes ATCC 8668 LRP 34; experiment: Bacteriostatic power in solid medium (MIC); details: Streptococcus pyogenes, ATCC8668; solid medium; read-out: Minimum inhibiting concentration
Source text: as §1

[10] = tested on: Pseudomonas aeruginosa LRP 9; experiment: Bacteriostatic power in solid medium (MIC); details: Pseudomonas aeruginosa, LRP9; solid medium; read-out: Minimum inhibiting concentration
Source text: as §1

[11] = tested on: Haemophilus influenzae ATCC 19418 LRP 213; experiment: Bacteriostatic power in solid medium (MIC); details: Haemophilus influenzae, ATCC19418, read-out: Minimum inhibiting concentration
Source text: as §1

[12] = tested on: Corynebacterium diphteriae LRP 24; experiment: Bacteriostatic power in solid medium (MIC); details: Corynebacterium, LRP24; solid medium; read-out: Minimum inhibiting concentration
Source text: as §1

[13] = tested on: Streptococcus pneumoniae ATCC 6303 LRP 52; experiment: Bacteriostatic power in solid medium (MIC); details: Streptococcus pneumoniae, ATCC6303; solid medium; read-out: Minimum inhibiting concentration
Source text: as §1

[14] = tested on: Staphylococcus aureus ATCC 6538P LRP 14; experiment: Bacteriostatic power in solid medium (MIC); details: Staphylococcus aureus, ATCC6538P; solid medium; Penycilline resistant; read-out: Minimum inhibiting concentration
Source text: as §1

Escherichia coli LRP 50 = experiment: Bacteriostatic power in solid medium (MIC); details: Escherichia coli, LRP50; solid medium; read-out: Minimum inhibiting concentration
Source text: as §1

[15] = tested on: Mycoplasma hominis I ATCC 14027 LRP 211; experiment: Bacteriostatic power in solid medium (MIC); details: Metamycoplasma hominis, ATCC14027; solid medium; read-out: Minimum inhibiting concentration
Source text: as §1

[16] = tested on: Acholeplasma laidlawii ATCC 23206 LRP 204; experiment: Bacteriostatic power in solid medium (MIC); details: Acholeplasma laidlawii, ATCC23206; solid medium; read-out: Minimum inhibiting concentration
Source text: as §1

[17] = tested on: Fusobacteriumnecrophroum ATCC 27852 LRP 210; experiment: Bacteriostatic power in solid medium (MIC); details: solid medium; anaerobic; read-out: Minimum inhibiting concentration
Source text: as §1

[18] = tested on: Micrococcus luteus ATCC 9341 LRP 6; experiment: Bacteriostatic power in solid medium (MIC); details: Micrococcus luteus, ATCC9341; solid medium; read-out: Minimum inhibiting concentration
Source text: as §1

[19] = tested on: Klelsiella pneumoniae LRP 54; experiment: Bacteriostatic power in solid medium (MIC); details: solid medium; read-out: Minimum inhibiting concentration
Source text: as §1

[20] = tested on: Streptococcus faecalis subsp. zymogenes ATCC 12958 LRP 61; experiment: Bacteriostatic power in solid medium (MIC); details: Enterococcus faecalis, ATCC12958; solid medium; read-out: Minimum inhibiting concentration
Source text: as §1

[21] = tested on: Streptococcus faecalis LRP 7; experiment: Bacteriostatic power in solid medium (MIC); details: Enterococcus faecalis, LRP7; solid medium; read-out: Minimum inhibiting concentration
Source text: as §1

[22] = tested on: Staphylococcus aureus ATCC 14154 LRP 78; experiment: Bacteriostatic power in solid medium (MIC); details: Staphylococcus aureus, ATCC14154, read-out: Minimum inhibiting concentration
Source text: as §1

[23] = tested on: Streptococcus pneumoniae ATCC 6303 LRP 35; experiment: Bacteriostatic power in solid medium (MIC); details: Streptococcus pneumoniae, ATCC6303; solid medium; read-out: Minimum inhibiting concentration
Source text: as §1

[24] = tested on: Micrococcus luteus ATCC 15957 LRP 193; experiment: Bacteriostatic power in solid medium (MIC); details: Micrococcus luteus, ATCC15957; solid medium; Erythromycin resistant; read-out: Minimum inhibiting concentration
Source text: as §1

[25] = tested on: Neisseria gonorrhoeae ATCC 19424 LRP 214; experiment: Bacteriostatic power in solid medium (MIC); details: Neisseria gonorrhoeae, ATCC19424; solid medium; read-out: Minimum inhibiting concentration
Source text: as §1

[26] = tested on: Streptococcus pyogenes ATCC 8668 LRP 197; experiment: Bacteriostatic power in solid medium (MIC); details: Streptococcus pyogenes, ATCC8668; solid medium; read-out: Minimum inhibiting concentration
Source text: as §1

[27] = tested on: Staphylococcus aureus ATCC 6538P LRP 39; experiment: Bacteriostatic power in solid medium (MIC); details: Staphylococcus aureus, ATCC6538P; solid medium; read-out: Minimum inhibiting concentration
Source text: as §1

[28] = tested on: Streptococcus pneumoniae ATCC 6303 LRP 53; experiment: Bacteriostatic power in solid medium (MIC); details: Streptococcus pneumoniae, ATCC6303; solid medium; read-out: Minimum inhibiting concentration
Source text: as §1

Bacillus subtilis LRP 25 = experiment: Bacteriostatic power in solid medium (MIC); details: Bacillus subtilis, LRP25; solid medium; read-out: Minimum inhibiting concentration
Source text: as §1

[29] = tested on: Streptococcus pyogenes ATCC 8668 LRP 34; experiment: Minimum bactericidal concentration (MBC)
Source text: (§2) the bacterial power, expressed as the minimum bactericidal power (MBC) against some Gram positive aerobic stocks (table 5).

[30] = tested on: Corynebacterium diphteriae LRP 24; experiment: Minimum bactericidal concentration (MBC)
Source text: as §2

[31] = tested on: Staphylococcus aureus ATCC 6538 P LRP 39; experiment: Minimum bactericidal concentration (MBC)
Source text: as §2

[32] = tested on: Streptococcus pneumoniae ATCC 6303 LRP 35; experiment: Minimum bactericidal concentration (MBC)
Source text: as §2

[33] = tested on: Streptococcus faecalis subs. zymogenes LRP 61; experiment: Minimum bactericidal concentration (MBC)
Source text: as §2

## CO[C@H]1C[C@H](O[C@H]2[C@H](C)[C@@H](O[C@@H]3O[C@H](C)C[C@H](N(C)C)[C@H]3O)[C@@H](C)C[C@@]3(CO3)C(=O)[C@H](C)[C@@H](O)[C@@H](C)[C@@H](C)OC(=O)[C@@H]2C)O[C@@H](C)[C@@H]1O [Oleandomycin, reference compound]
[1]
  MIC: 0.195 mg/L (≈ 0.283 µM)
[2]
  MIC: 0.097 mg/L (≈ 0.141 µM)
[3]
  MIC: 0.39 mg/L (≈ 0.567 µM)
[4]
  MIC: 1.56 mg/L (≈ 2.27 µM)
[5]
  MIC: 0.195 mg/L (≈ 0.283 µM)
Salmonella typhy LRP 8
  MIC: 25 mg/L (≈ 36.3 µM)
[6]
  MIC: 3.12 mg/L (≈ 4.54 µM)
Shigella sonnei LRP 5
  MIC: 25 mg/L (≈ 36.3 µM)
[7]
  MIC: 0.39 mg/L (≈ 0.567 µM)
[8]
  MIC: 25 mg/L (≈ 36.3 µM)
[9]
  MIC: 0.195 mg/L (≈ 0.283 µM)
[10]
  MIC: 25 mg/L (≈ 36.3 µM)
[11]
  MIC: 25 mg/L (≈ 36.3 µM)
[12]
  MIC: 0.097 mg/L (≈ 0.141 µM)
[13]
  MIC: 0.195 mg/L (≈ 0.283 µM)
[14]
  MIC: 0.39 mg/L (≈ 0.567 µM)
Escherichia coli LRP 50
  MIC: 25 mg/L (≈ 36.3 µM)
[15]
  MIC: 25 mg/L (≈ 36.3 µM)
[16]
  MIC: 6.25 mg/L (≈ 9.09 µM)
[17]
  MIC: 6.25 mg/L (≈ 9.09 µM)
[18]
  MIC: 0.049 mg/L (≈ 0.0712 µM)
[19]
  MIC: 25 mg/L (≈ 36.3 µM)
[20]
  MIC: 1.56 mg/L (≈ 2.27 µM)
[21]
  MIC: 1.56 mg/L (≈ 2.27 µM)
[22]
  MIC: 25 mg/L (≈ 36.3 µM)
[23]
  MIC: 0.195 mg/L (≈ 0.283 µM)
[24]
  MIC: 25 mg/L (≈ 36.3 µM)
[25]
  MIC: 0.39 mg/L (≈ 0.567 µM)
[26]
  MIC: 0.195 mg/L (≈ 0.283 µM)
[27]
  MIC: 0.39 mg/L (≈ 0.567 µM)
[28]
  MIC: 0.195 mg/L (≈ 0.283 µM)
Bacillus subtilis LRP 25
  MIC: 0.39 mg/L (≈ 0.567 µM)
[29]
  MBC/MIC: 16
[29]; Streptococcus pyogenes, ATCC8668, read-out: Minimum bactericidal concentration (MBC)
  MBC: 3.12 mg/L (≈ 4.54 µM)
[30]
  MBC/MIC: 4
[30]; Corynebacterium, LRP24, read-out: Minimum bactericidal concentration (MBC)
  MBC: 0.39 mg/L (≈ 0.567 µM)
[31]
  MBC/MIC: 16
[31]; Staphylococcus aureus, ATCC6538, read-out: Minimum bactericidal concentration (MBC)
  MBC: 6.25 mg/L (≈ 9.09 µM)
[32]
  MBC/MIC: 4
[32]; Streptococcus pneumoniae, ATCC6303, read-out: Minimum bactericidal concentration (MBC)
  MBC: 0.78 mg/L (≈ 1.13 µM)
[33]
  MBC/MIC: > 8
[33]; Enterococcus faecalis, read-out: Minimum bactericidal concentration (MBC)
  MBC: > 12.5 mg/L
